Source: patent US5675003A, “3-ammoniopropenyl cephalosporin compounds as antibacterial agents” (Korea Institute of Science and Technology, priority 1995, dated 1997)
Converted amounts (≈) assume the structure as drawn.

Legend:
Assay in all cases: MIC, in vitro agar dilution method
Format in all cases: cell-based
Escherichia coli DC0 = conditions: E.c.2, Escherichia coli DC0
Method: (§1) The MICs of the new cephalosporins of the present invention against Gram-positive and Gram-negative bacteria were determined by an in vitro agar dilution method. For comparisons, the MIC values of ceftazidime are also listed.
(§2) In vitro antimicrobial activity of the cephalosporins (l) (MIC:
E.c.2, Escherichia coli DC0;

Escherichia coli 1507 E = conditions: E.c.4, Escherichia coli 1507 E
Method: as §1, §2
E.c.4, Escherichia coli 1507 E;

[1] = system: Klebsiella oxytoca 1082 E; conditions: K.o., Klebsiella oxytoca 1082 E; agar dilution; read-out: MIC
Method: as §1, §2
K.o., Klebsiella oxytoca 1082 E;

Salmonella typhimurium = conditions: Salmonella enterica; S.t., Salmonella typhimurium; agar dilution; read-out: MIC
Method: as §1, §2
S.t., Salmonella typhimurium;

[2] = system: Enterobacter cloacae 1321 E; conditions: En.c.2, Enterobacter cloacae 1321 E; agar dilution; read-out: MIC
Method: as §1, §2
En.c.2, Enterobacter cloacae 1321 E.

E.c.5 = conditions: Escherichia coli, E.c.5 (strain not defined)
Method: as §1

[3] = system: Pseudomonas aeruginosa 9027; conditions: P.a.1, Pseudomonas aeruginosa 9027; agar dilution; read-out: MIC
Method: as §1, §2
P.a.1, Pseudomonas aeruginosa 9027;

[4] = system: Enterobacter cloacae P 99; conditions: Enterobacter cloacae, P99
Method: as §1, §2
En.c.1, Enterobacter cloacae P 99;

[5] = system: Staphlococcus aureus SG 511; conditions: S.a.1, Staphlococcus aureus SG 511; agar dilution; read-out: MIC
Method: as §1, §2
S.a.1, Staphlococcus aureus SG 511;

[6] = system: Staphylococcus aureus 503; conditions: S.a.3, Staphylococcus aureus 503; agar dilution; read-out: MIC
Method: as §1, §2
S.a.3, Staphylococcus aureus 503;

[7] = system: Pseudomonas aeruginosa 1592 E; conditions: P.a.2, Pseudomonas aeruginosa 1592 E; agar dilution; read-out: MIC
Method: as §1, §2
P.a.2, Pseudomonas aeruginosa 1592 E;

[8] = system: Streptococcus pyogenes 308 A; conditions: S.p.1, Streptococcus pyogenes 308 A; agar dilution; read-out: MIC
Method: as §1, §2
S.p.1, Streptococcus pyogenes 308 A;

Streptococcus faecium MD = conditions: Enterococcus faecium; S.f., Streptococcus faecium MD; agar dilution; read-out: MIC
Method: as §1, §2
S.f., Streptococcus faecium MD;

[9] = system: Pseudomonas aeruginosa 1771 M; conditions: P.a.4, Pseudomonas aeruginosa 1771 M; agar dilution; read-out: MIC
Method: as §1, §2
P.a.4, Pseudomonas aeruginosa 1771 M;

[10] = system: Klebsiella aerogenes 1552 E; conditions: K.a., Klebsiella aerogenes 1552 E; agar dilution; read-out: MIC
Method: as §1, §2
K.a., Klebsiella aerogenes 1552 E;

Escherichia coli TEM = conditions: E.c.3, Escherichia coli TEM
Method: as §1, §2
E.c.3, Escherichia coli TEM;

[11] = system: Staphylococcus aureus 285; conditions: S.a.2, Staphylococcus aureus 285; agar dilution; read-out: MIC
Method: as §1, §2
E.c. TEM, S.a. 2, Staphylococcus aureus 285;

[12] = system: Streptococcus pyogenes A 77; conditions: A77; S.p.2, Streptococcus pyogenes A 77; agar dilution; read-out: MIC
Method: as §1, §2
S.p.2, Streptococcus pyogenes A 77;

[13] = system: Pseudomonas eruginosa 1771; conditions: P.a.3, Pseudomonas eruginosa 1771
Method: as §1, §2
P.a.3, Pseudomonas eruginosa 1771;

Escherichia coli O55 = conditions: E.c.1, Escherichia coli O55
Method: as §1, §2
E.c.1, Escherichia coli O55;

## CO/N=C(\C(=O)N[C@@H]1C(=O)N2C(C(=O)[O-])=C(/C=C/C[N+]3(C)CC[C@@H](O)[C@H](O)C3)CS[C@H]12)c1csc(N)n1 (relative stereo) [1-f, 7β-[2-(2-Aminothiazol-4-yl)-(Z)-2-methoxyiminoacetamido]-3-[(E)-3-(3,4-trans-dihydroxy-1-methyl-1-piperidinio)-1-propen-1-yl]-3-cephem-4-carboxylate]
Escherichia coli DC0
  MIC: 0.049 µg/mL (≈ 0.0887 µM)
Escherichia coli 1507 E
  MIC: 0.049 µg/mL (≈ 0.0887 µM)
[1]
  MIC: 3.13 µg/mL (≈ 5.66 µM)
Salmonella typhimurium
  MIC: 0.025 µg/mL (≈ 0.0452 µM)
[2]
  MIC: 0.025 µg/mL (≈ 0.0452 µM)
E.c.5
  MIC: 0.049 µg/mL (≈ 0.0887 µM)
[3]
  MIC: 3.13 µg/mL (≈ 5.66 µM)
[4]
  MIC: 12.5 µg/mL (≈ 22.6 µM)
[5]
  MIC: 0.39 µg/mL (≈ 0.706 µM)
[6]
  MIC: 0.2 µg/mL (≈ 0.362 µM)
[7]
  MIC: 1.56 µg/mL (≈ 2.82 µM)
[8]
  MIC: 0.013 µg/mL (≈ 0.0235 µM)
Streptococcus faecium MD
  MIC: 50 µg/mL (≈ 90.5 µM)
[9]
  MIC: 0.098 µg/mL (≈ 0.177 µM)
[10]
  MIC: 0.025 µg/mL (≈ 0.0452 µM)
Escherichia coli TEM
  MIC: 0.025 µg/mL (≈ 0.0452 µM)
[11]
  MIC: 0.78 µg/mL (≈ 1.41 µM)
[12]
  MIC: 0.013 µg/mL (≈ 0.0235 µM)
[13]
  MIC: 0.78 µg/mL (≈ 1.41 µM)
Escherichia coli O55
  MIC: 0.025 µg/mL (≈ 0.0452 µM)

## CON=C(C(=O)NC1C(=O)N2C(C(=O)[O-])=C(C=CC[N+]3(C)C4CCC3CC(O)C4)CSC12)c1csc(N)n1 (stereo not drawn) [1-i, 7β-[2-(2-Aminothiazol-4-yl)-(Z)-2-methoxyiminoacetamido]-3-[(E)-3-tropinio-1-propen-1-yl]-3-cephem-4-carboxylate]
Escherichia coli DC0
  MIC: 0.049 µg/mL (≈ 0.0871 µM)
Escherichia coli 1507 E
  MIC: 0.098 µg/mL (≈ 0.174 µM)
[1]
  MIC: 1.56 µg/mL (≈ 2.77 µM)
Salmonella typhimurium
  MIC: 0.049 µg/mL (≈ 0.0871 µM)
[2]
  MIC: 0.025 µg/mL (≈ 0.0444 µM)
E.c.5
  MIC: 0.049 µg/mL (≈ 0.0871 µM)
[3]
  MIC: 6.25 µg/mL (≈ 11.1 µM)
[4]
  MIC: 6.25 µg/mL (≈ 11.1 µM)
[5]
  MIC: 0.39 µg/mL (≈ 0.693 µM)
[6]
  MIC: 0.2 µg/mL (≈ 0.355 µM)
[7]
  MIC: 3.13 µg/mL (≈ 5.56 µM)
[8]
  MIC: 0.013 µg/mL (≈ 0.0231 µM)
Streptococcus faecium MD
  MIC: 50 µg/mL (≈ 88.9 µM)
[9]
  MIC: 0.2 µg/mL (≈ 0.355 µM)
[10]
  MIC: 0.025 µg/mL (≈ 0.0444 µM)
Escherichia coli TEM
  MIC: 0.025 µg/mL (≈ 0.0444 µM)
[11]
  MIC: 0.78 µg/mL (≈ 1.39 µM)
[12]
  MIC: 0.013 µg/mL (≈ 0.0231 µM)
[13]
  MIC: 1.56 µg/mL (≈ 2.77 µM)
Escherichia coli O55
  MIC: 0.025 µg/mL (≈ 0.0444 µM)

## CO/N=C(\C(=O)N[C@@H]1C(=O)N2C(C(=O)[O-])=C(/C=C/C[N+]3(C)C[C@@H](O)[C@@H](O)C3)CS[C@H]12)c1csc(N)n1 (stereo partly drawn) [1-a, 7β-[2-(2-Aminothiazol-4-yl)-(Z)-2-methoxyiminoacetamido]-3-[(E)-3-(meso-3,4-dihydroxy-1-methyl-1-pyrrolidinio)-1-propen-1-yl]-3-cephem-4-carboxylate]
Escherichia coli DC0
  MIC: 0.049 µg/mL (≈ 0.091 µM)
Escherichia coli 1507 E
  MIC: 0.049 µg/mL (≈ 0.091 µM)
[1]
  MIC: 3.13 µg/mL (≈ 5.81 µM)
Salmonella typhimurium
  MIC: 0.013 µg/mL (≈ 0.0241 µM)
[2]
  MIC: 0.013 µg/mL (≈ 0.0241 µM)
E.c.5
  MIC: 0.049 µg/mL (≈ 0.091 µM)
[3]
  MIC: 3.13 µg/mL (≈ 5.81 µM)
[4]
  MIC: 6.25 µg/mL (≈ 11.6 µM)
[5]
  MIC: 0.39 µg/mL (≈ 0.724 µM)
[6]
  MIC: 0.2 µg/mL (≈ 0.371 µM)
[7]
  MIC: 3.13 µg/mL (≈ 5.81 µM)
[8]
  MIC: 0.013 µg/mL (≈ 0.0241 µM)
Streptococcus faecium MD
  MIC: 50 µg/mL (≈ 92.8 µM)
[9]
  MIC: 0.098 µg/mL (≈ 0.182 µM)
[10]
  MIC: 0.025 µg/mL (≈ 0.0464 µM)
Escherichia coli TEM
  MIC: 0.025 µg/mL (≈ 0.0464 µM)
[11]
  MIC: 0.78 µg/mL (≈ 1.45 µM)
[12]
  MIC: 0.013 µg/mL (≈ 0.0241 µM)
[13]
  MIC: 1.56 µg/mL (≈ 2.9 µM)
Escherichia coli O55
  MIC: 0.013 µg/mL (≈ 0.0241 µM)

## CO/N=C(\C(=O)N[C@@H]1C(=O)N2C(C(=O)[O-])=C(/C=C/C[N+]3(C)CCCCC3CO)CS[C@H]12)c1csc(N)n1 (stereo partly shown) [1-h]
Escherichia coli DC0
  MIC: 0.049 µg/mL (≈ 0.089 µM)
Escherichia coli 1507 E
  MIC: 0.049 µg/mL (≈ 0.089 µM)
[1]
  MIC: 1.56 µg/mL (≈ 2.83 µM)
Salmonella typhimurium
  MIC: 0.025 µg/mL (≈ 0.0454 µM)
[2]
  MIC: 0.013 µg/mL (≈ 0.0236 µM)
E.c.5
  MIC: 0.049 µg/mL (≈ 0.089 µM)
[3]
  MIC: 6.25 µg/mL (≈ 11.3 µM)
[4]
  MIC: 3.13 µg/mL (≈ 5.68 µM)
[5]
  MIC: 0.39 µg/mL (≈ 0.708 µM)
[6]
  MIC: 0.2 µg/mL (≈ 0.363 µM)
[7]
  MIC: 3.13 µg/mL (≈ 5.68 µM)
[8]
  MIC: 0.013 µg/mL (≈ 0.0236 µM)
Streptococcus faecium MD
  MIC: 25 µg/mL (≈ 45.4 µM)
[9]
  MIC: 0.098 µg/mL (≈ 0.178 µM)
[10]
  MIC: 0.025 µg/mL (≈ 0.0454 µM)
Escherichia coli TEM
  MIC: 0.025 µg/mL (≈ 0.0454 µM)
[11]
  MIC: 0.39 µg/mL (≈ 0.708 µM)
[12]
  MIC: 0.007 µg/mL (≈ 0.0127 µM)
[13]
  MIC: 1.56 µg/mL (≈ 2.83 µM)
Escherichia coli O55
  MIC: 0.013 µg/mL (≈ 0.0236 µM)

## CO/N=C(\C(=O)N[C@@H]1C(=O)N2C(C(=O)[O-])=C(/C=C/C[N+]3(C)C[C@H](O)C[C@H]3CO)CS[C@H]12)c1csc(N)n1 (stereo partly drawn) [1-c, 7β-[2-(2-Aminothiazol-4-yl)-(Z)-2-methoxyiminoacetamido]-3-[(E)-3-(4R-hydroxy-2S-hydroxymethyl-1-methyl-1-pyrrolidinio)-1-propen-1-yl]-3-cephem-4-carboxylate]
Escherichia coli DC0
  MIC: 0.049 µg/mL (≈ 0.0887 µM)
Escherichia coli 1507 E
  MIC: 0.049 µg/mL (≈ 0.0887 µM)
[1]
  MIC: 3.13 µg/mL (≈ 5.66 µM)
Salmonella typhimurium
  MIC: 0.025 µg/mL (≈ 0.0452 µM)
[2]
  MIC: 0.013 µg/mL (≈ 0.0235 µM)
E.c.5
  MIC: 0.049 µg/mL (≈ 0.0887 µM)
[3]
  MIC: 6.25 µg/mL (≈ 11.3 µM)
[4]
  MIC: 3.13 µg/mL (≈ 5.66 µM)
[5]
  MIC: 0.39 µg/mL (≈ 0.706 µM)
[6]
  MIC: 0.2 µg/mL (≈ 0.362 µM)
[7]
  MIC: 3.13 µg/mL (≈ 5.66 µM)
[8]
  MIC: 0.013 µg/mL (≈ 0.0235 µM)
Streptococcus faecium MD
  MIC: 50 µg/mL (≈ 90.5 µM)
[9]
  MIC: 0.2 µg/mL (≈ 0.362 µM)
[10]
  MIC: 0.049 µg/mL (≈ 0.0887 µM)
Escherichia coli TEM
  MIC: 0.025 µg/mL (≈ 0.0452 µM)
[11]
  MIC: 0.78 µg/mL (≈ 1.41 µM)
[12]
  MIC: 0.004 µg/mL (≈ 0.00724 µM)
[13]
  MIC: 1.56 µg/mL (≈ 2.82 µM)
Escherichia coli O55
  MIC: 0.013 µg/mL (≈ 0.0235 µM)
